Target: LSD-1 enzyme (Homo sapiens (Human), UniProt O60341)
Assay: LANCE LSD1/KDM1A demethylase assay (LSD1 histone demethylase biochemical assay)
Protocol: Example A: LSD1 Histone Demethylase Biochemical Assay
LANCE LSD1/KDM1A demethylase assay—10 μL of 1 nM LSD-1 enzyme (ENZO BML-SE544-0050) in the assay buffer (50 mM Tris, pH 7.5, 0.01% Tween-20, 25 mM NaCl, 5 mM DTT) were preincubated for 1 hour at 25° C. with 0.8 μL compound/DMSO dotted in black 384 well polystyrene plates. […] Reactions were stopped by addition of 10 μL 1× LANCE Detection Buffer (PerkinElmer CR97-100) supplemented with 1.5 nM Eu-anti-unmodified H3K4 Antibody (PerkinElmer TRF0404), and 225 nM LANCE Ultra Streptavidin (PerkinElmer TRF102) along with 0.9 mM Tranylcypromine-HCl (Millipore 616431). After stopping the reactions plates were incubated for 30 minutes and read on a PHERAstar FS plate reader (BMG Labtech).

Row | SMILES | IC50 [nM]
1 | CN(C)[C@H]1CCN(Cc2nc(-c3ccc(C#N)cc3)c(-c3ccc(N4CCCC4=O)nc3)n3ccnc23)C1 [Example 56, 4-{8-{[(3S)-3-(dimethylamino)pyrrolidin-1-yl]methyl}-5-[6-(2-oxopyrrolidin-1-yl)pyridin-3-yl]imidazo[1,2-a]pyrazin-6-yl}benzonitrile] | 50 to 500
2 | CN1CCC[C@@H](COc2nc(-c3ccc(C#N)cc3)c(-c3ccc4c(c3)OCCO4)n3ccnc23)C1 [Example 50, 4-(5-(2,3-dihydro-1,4-benzodioxin-6-yl)-8-{[(3R)-1-methylpiperidin-3-yl]methoxy}imidazo[1,2-a]pyrazin-6-yl)benzonitrile] | 50 to 500
3 | CN1CCC[C@@H](COc2nc(-c3ccc(C#N)cc3)c(-c3ccc(CO)cc3)n3ccnc23)C1 [Example 74, 4-(5-[4-(hydroxymethyl)phenyl]-8-{[(3R)-1-methylpiperidin-3-yl]methoxy}imidazo[1,2-a]pyrazin-6-yl)benzonitrile] | 50 to 500
4 | COC(=O)N(C)c1ccc(-c2c(-c3ccc(C#N)cc3)nc(OC[C@@H]3CCCN(C)C3)c3nccn23)cc1 [Example 77] | 50 to 500
5 | CN1CCC[C@@H](COc2nc(-c3ccc(C#N)cc3)c(-c3ccc4scnc4c3)n3ccnc23)C1 [Example 55, 4-(5-(1,3-benzothiazol-5-yl)-8-{[(3R)-1-methylpiperidin-3-yl]methoxy}imidazo[1,2-a]pyrazin-6-yl)benzonitrile] | 50 to 500
6 | CCN1CCC[C@@H](COc2nc(-c3ccc(C#N)cc3)c(-c3cnc4c(ccn4C)c3)n3ccnc23)C1 [Example 61, 4-[8-{[(3R)-1-ethylpiperidin-3-yl]methoxy}-5-(1-methyl-1H-pyrrolo[2,3-b]pyridin-5-yl)imidazo[1,2-a]pyrazin-6-yl]benzonitrile] | 50 to 500
7 | CN1CCC[C@@H](COc2nc(-c3ccc(C#N)cc3)c(-c3ccc(CN4CCOCC4)cc3)n3ccnc23)C1 [Example 75, 4-{8-{[(3R)-1-methylpiperidin-3-yl]methoxy}-5-[4-(morpholin-4-ylmethyl)phenyl]imidazo[1,2-a]pyrazin-6-yl}benzonitrile] | 50 to 500
8 | Cc1ccc(-c2c(-c3ccc(C#N)cc3)nc(OC[C@@H]3CCNC3)c3nc(C(F)(F)F)cn23)cc1 [Example 34, 4-[5-(4-methylphenyl)-8-[(3R)-pyrrolidin-3-ylmethoxy]-2-(trifluoromethyl)imidazo[1,2-a]pyrazin-6-yl]benzonitrile] | 50 to 500
9 | CN1CCC[C@@H](COc2nc(-c3ccc(C#N)cc3)c(-c3cc(F)c(CO)c(F)c3)n3ccnc23)C1 [Example 83, 4-(5-[3,5-difluoro-4-(hydroxymethyl)phenyl]-8-{[(3R)-1-methylpiperidin-3-yl]methoxy}imidazo[1,2-a]pyrazin-6-yl)benzonitrile] | 50 to 500
10 | Cc1ccc(-c2c(-c3ccc(C#N)cc3)nc(N(C)CCCN(C)C)c3nccn23)cc1 [Example 15, 4-[8-[[3-(dimethylamino)propyl](methyl)amino]-5-(4-methylphenyl)imidazo[1,2-a]pyrazin-6-yl]benzonitrile] | 50 to 500
11 | CN1CCC[C@@H](COc2nc(-c3ccc(C#N)cc3)c(-c3cnc4c(cnn4C)c3)n3ccnc23)C1 [Example 54, 4-[8-{[(3R)-1-methylpiperidin-3-yl]methoxy}-5-(1-methyl-1H-pyrazolo[3,4-b]pyridin-5-yl)imidazo[1,2-a]pyrazin-6-yl]benzonitrile] | 50 to 500
12 | CN1CCC[C@@H](COc2nc(-c3ccc(C#N)cc3)c(-c3ccc(N4CCCC4=O)nc3)n3ccnc23)C1 [Example 48, 4-{8-{[(3R)-1-methylpiperidin-3-yl]methoxy}-5-[6-(2-oxopyrrolidin-1-yl)pyridin-3-yl]imidazo[1,2-a]pyrazin-6-yl}benzonitrile] | 50 to 500
13 | Cc1ccc(-c2cn3c(-c4ccc(C)cc4)c(-c4ccc(C#N)cc4)nc(OC[C@@H]4CCNC4)c3n2)cc1 [Example 35, 4-{2,5-bis(4-methylphenyl)-8-[(3R)-pyrrolidin-3-ylmethoxy]imidazo[1,2-a]pyrazin-6-yl}benzonitrile] | 50 to 500
14 | N#Cc1ccc(-c2nc(OC[C@@H]3CCNC3)c3nccn3c2-c2ccc(C(F)(F)F)cc2)cc1 [Example 28, 4-{8-[(3R)-pyrrolidin-3-ylmethoxy]-5-[4-(trifluoromethyl)phenyl]imidazo[1,2-a]pyrazin-6-yl}benzonitrile] | 50 to 500
15 | Cn1c(=O)oc2cc(-c3c(-c4ccc(C#N)cc4)nc(OC[C@@H]4CCCN(CCC#N)C4)c4nccn34)ccc21 [Example 64, 4-[8-{[(3R)-1-(2-cyanoethyl)piperidin-3-yl]methoxy}-5-(3-methyl-2-oxo-2,3-dihydro-1,3-benzoxazol-6-yl)imidazo[1,2-a]pyrazin-6-yl]benzonitrile] | 50 to 500
16 | Cc1ccc(-c2c(-c3ccc(C#N)cc3)nc(NC3CCN(C)CC3)c3nccn23)cc1 [Example 17, 4-{5-(4-methylphenyl)-8-[(1-methylpiperidin-4-yl)amino]imidazo[1,2-a]pyrazin-6-yl}benzonitrile] | 50 to 500

Row | SMILES | IC50 [nM]
17 | CN1CCC[C@@H](COc2nc(-c3ccc(C#N)cc3)c(-c3ccc4c(c3)OCC(=O)N4C)n3ccnc23)C1 [Example 49, 4-(5-(4-methyl-3-oxo-3,4-dihydro-2H-1,4-benzoxazin-7-yl)-8-{[(3R)-1-methylpiperidin-3-yl]methoxy}imidazo[1,2-a]pyrazin-6-yl)benzonitrile] | 50 to 500
18 | N#Cc1ccc(-c2nc(OC[C@@H]3CCNC3)c3nccn3c2-c2ccccc2)cc1 [Example 26, 4-{(5-phenyl)-8-[(3R)-pyrrolidin-3-ylmethoxy]imidazo[1,2-a]pyrazin-6-yl}benzonitrile] | 50 to 500
19 | Cc1ccc(-c2c(-c3ccc(C#N)cc3)nc(OCCCN(C)C)c3nccn23)cc1 [Example 8, 4-[8-[3-(dimethylamino)propoxy]-5-(4-methylphenyl)imidazo[1,2-a]pyrazin-6-yl]benzonitrile] | 50 to 500
20 | CN1CCC[C@@H](COc2nc(-c3ccc(C#N)cc3)c(-c3ccc(CN4CCOCC4)cc3F)n3ccnc23)C1 [Example 89, 4-(5-[2-fluoro-4-(morpholin-4-ylmethyl)phenyl]-8-{[(3R)-1-methylpiperidin-3-yl]methoxy}imidazo[1,2-a]pyrazin-6-yl)benzonitrile] | 50 to 500
21 | CCN1CCC[C@@H](COc2nc(-c3ccc(C#N)cc3)c(-c3ccc4c(c3)oc(=O)n4C)n3ccnc23)C1 [Example 63, 4-[8-{[(3R)-1-ethylpiperidin-3-yl]methoxy}-5-(3-methyl-2-oxo-2,3-dihydro-1,3-benzoxazol-6-yl)imidazo[1,2-a]pyrazin-6-yl]benzonitrile] | 50 to 500
22 | Cc1cc(-c2c(-c3ccc(C#N)cc3)nc(OC[C@@H]3CCCN(C)C3)c3nccn23)ccc1C(C)O (stereo partly drawn) [Example 86, 4-(5-[4-(1-hydroxyethyl)-3-methylphenyl]-8-{[(3R)-1-methylpiperidin-3-yl]methoxy}imidazo[1,2-a]pyrazin-6-yl)benzonitrile] | 50 to 500
23 | N#Cc1ccc(-c2nc(OC[C@@H]3CCNC3)c3nccn3c2-c2ccc(Cl)cc2)cc1 [Example 27, 4-{5-(4-chlorophenyl)-8-[(3R)-pyrrolidin-3-ylmethoxy]imidazo[1,2-a]pyrazin-6-yl}benzonitrile] | 50 to 500
24 | Cc1ccc(-c2c(-c3ccc(C#N)cc3)nc(C(=O)NC3CN(C)C3)c3nccn23)cc1 [Example 25, 6-(4-cyanophenyl)-N-(1-methylazetidin-3-yl)-5-(4-methylphenyl)imidazo[1,2-a]pyrazine-8-carboxamide] | 50 to 500
25 | CN1C(=O)CCc2ccc(-c3c(-c4ccc(C#N)cc4)nc(N4CCC(N(C)C)CC4)c4nccn34)cc21 [Example 108, 4-[8-[4-(dimethylamino)piperidin-1-yl]-5-(1-methyl-2-oxo-1,2,3,4-tetrahydroquinolin-7-yl)imidazo[1,2-a]pyrazin-6-yl]benzonitrile] | 50 to 500
26 | Cc1ccc(-c2c(-c3ccc(C#N)cc3)nc(CO[C@@H]3CCNC3)c3nccn23)cc1 [Example 3, 4-(5-(4-methylphenyl)-8-{[(3R)-pyrrolidin-3-yloxy]methyl}imidazo[1,2-a]pyrazin-6-yl)benzonitrile] | 50 to 500
27 | C[C@H](O)c1nc2cc(-c3c(-c4ccc(C#N)cc4)nc(N4CCC(N(C)C)CC4)c4nccn34)ccc2n1C [Example 114, 4-(8-[4-(dimethylamino)piperidin-1-yl]-5-{2-[(1S)-1-hydroxyethyl]-1-methyl-1H-benzimidazol-5-yl}imidazo[1,2-a]pyrazin-6-yl)benzonitrile] | 50 to 500
28 | Cc1ccc(-c2c(-c3ccc(C#N)cc3)nc(CCN3CC[C@@H](N(C)C)C3)c3nccn23)cc1 [Example 6, 4-[8-{2-[(3R)-3-(dimethylamino)pyrrolidin-1-yl]ethyl}-5-(4-methylphenyl)imidazo[1,2-a]pyrazin-6-yl]benzonitrile] | 500 to 1000
29 | CN(C)[C@H]1CCN(c2nc(-c3ccc(C#N)cc3)c(-c3ccc(N4CCCC4=O)nc3)n3ccnc23)C1 [Example 104, 4-{8-[(3S)-3-(dimethylamino)pyrrolidin-1-yl]-5-[6-(2-oxopyrrolidin-1-yl)pyridin-3-yl]imidazo[1,2-a]pyrazin-6-yl}benzonitrile] | 50 to 500
30 | COc1ncc(-c2c(-c3ccc(C#N)cc3)nc(OC[C@@H]3CCCN(C)C3)c3nccn23)cc1F [Example 84, 4-(5-(5-fluoro-6-methoxypyridin-3-yl)-8-{[(3R)-1-methylpiperidin-3-yl]methoxy}imidazo[1,2-a]pyrazin-6-yl)benzonitrile] | 50 to 500
31 | CN(C)c1ncc(-c2c(-c3ccc(C#N)cc3)nc(OC[C@@H]3CCNC3)c3nccn23)cn1 [Example 31, 4-{5-[2-(dimethylamino)pyrimidin-5-yl]-8-[(3R)-pyrrolidin-3-ylmethoxy]imidazo[1,2-a]pyrazin-6-yl}benzonitrile] | 50 to 500
